Our source for the EC50 values is patent US9718828B2 (MERCK SHARP & DOHME CORP., priority 2011, dated 2017).

Where a name gives a salt, the structure may show the parent alone.

Btk enzyme (His-Btk), sequence (Q06187 whole entry): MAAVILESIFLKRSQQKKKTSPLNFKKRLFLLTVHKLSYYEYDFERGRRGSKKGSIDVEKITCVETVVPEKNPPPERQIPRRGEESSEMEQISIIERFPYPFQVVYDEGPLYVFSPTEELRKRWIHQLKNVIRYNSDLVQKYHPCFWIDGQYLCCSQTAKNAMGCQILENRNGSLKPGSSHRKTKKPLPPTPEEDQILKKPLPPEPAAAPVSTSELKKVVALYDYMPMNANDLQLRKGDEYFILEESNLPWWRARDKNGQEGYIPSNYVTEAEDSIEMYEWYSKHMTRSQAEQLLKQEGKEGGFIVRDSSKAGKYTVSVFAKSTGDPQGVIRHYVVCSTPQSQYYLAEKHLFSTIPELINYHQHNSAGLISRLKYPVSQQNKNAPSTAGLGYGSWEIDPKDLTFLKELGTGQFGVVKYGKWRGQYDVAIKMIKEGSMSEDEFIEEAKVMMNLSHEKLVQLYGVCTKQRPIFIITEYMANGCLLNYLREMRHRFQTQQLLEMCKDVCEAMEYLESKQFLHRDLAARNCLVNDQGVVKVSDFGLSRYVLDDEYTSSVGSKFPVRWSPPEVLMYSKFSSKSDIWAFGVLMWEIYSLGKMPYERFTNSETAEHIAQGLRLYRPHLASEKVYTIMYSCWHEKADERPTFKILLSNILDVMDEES

The first test concerns the target Btk enzyme (His-Btk) (Homo sapiens (Human), UniProt Q06187). In words: Btk enzyme activity, IMAP fluorescence polarization assay (Assay Method A).
Details: not given
`CN(C)C1(C(=O)N2CCC[C@@H](c3nc(-c4ccc(C(=O)Nc5cc(C(F)(F)F)ccn5)cc4)c4c(N)nccn34)C2)CCC1` [Example 79, (R)-4-(8-amino-3-(1-(1-(dimethylamino)cyclobutane-carbonyl)piperidin-3-yl)imidazo[1,5-a]pyrazin-1-yl)-N-(4-(trifluoromethyl)pyridin-2-yl)benzamide] yielded an EC50 of 10 to 100 nM.

Compound `CC1CCc2nc(NC(=O)c3ccc(-c4nc([C@H]5[C@@H]6COC[C@@H]65)n5ccnc(N)c45)cc3)sc2C1` (stereo partly drawn) [Example 32, 4-(8-amino-3-((1R,5S,6S)-3-oxabicyclo[3.1.0]hexan-6-yl)imidazo[1,5-a]pyrazin-1-yl)-N-(6-methyl-4,5,6,7-tetrahydrobenzo[d]thiazol-2-yl)benzamide, TFA salt] yielded a concentration giving a half-maximal response (EC50) of 10 to 100 nM.

In turn, `Nc1nccn2c([C@@H]3CCCN(C(=O)C4CN(C(=O)c5ccccc5)C4)C3)nc(-c3ccc(C(=O)Nc4cc(C(F)(F)F)ccn4)cc3)c12` [Example 84, (R)-4-(8-amino-3-(1-(1-benzoylazetidine-3-carbonyl)piperidin-3-yl)imidazo[1,5-a]pyrazin-1-yl)-N-(4-(trifluoromethyl)pyridin-2-yl)benzamide] gave an EC50 of less than 10 nM. `CO[C@H]1CC[C@@H](c2nc(-c3ccc(C(=O)Nc4cc(C#N)ccn4)cc3)c3c(N)nccn32)CC1` [Example 41, 4-(8-amino-3-((cis)-4-methoxycyclohexyl)imidazo [1,5-a]pyrazin-1-yl)-N-(4-cyanopyridin-2-yl)benzamide] returned an EC50 of less than 10 nM.

`CC(C)(C)NC(=O)C1CCCN(c2nc(-c3ccc(C(=O)Nc4ccccn4)cc3)c3c(N)nccn23)C1` (stereo not shown) [Example 228, 1-(8-amino-1-(4-(pyridin-2-ylcarbamoyl)phenyl)imidazo[1,5-a]pyrazin-3-yl)-N-tert-butylpiperidine-3-carboxamide, TFA salt] displayed an EC50 of 10 to 100 nM. The same measure, in the same setting: the same measure for `Nc1nccn2c1c(-c1ccc(C(=O)Nc3nc4c(s3)COCC4)cc1)nc2[C@H]1CC[C@H](O)CC1` [Example 15, 4-(8-amino-3-((trans)-4-hydroxycyclohexyl)imidazo[1,5-a]pyrazin-1-yl)-N-(6,7-dihydro-4H-pyrano[4,3-d]thiazol-2-yl)benzamide]: 10 to 100 nM; for `Nc1nccn2c([C@@H]3CCCN(C(=O)C(=O)c4ccco4)C3)nc(-c3ccc(C(=O)Nc4cc(C5CC5)ccn4)cc3)c12` [Example 123, (R)-4-(8-amino-3-(1-(2-(furan-2-yl)-2-oxoacetyl)piperidin-3-yl)imidazo[1,5-a]pyrazin-1-yl)-N-(4-cyclopropylpyridin-2-yl)benzamide]: 10 to 100 nM; for `COCc1n[nH]c2c1CC(c1nc(-c3ccc(C(=O)Nc4cc(C(F)(F)F)ccn4)cc3)c3c(N)nccn13)CC2` (stereo not shown) [Example 250, 4-(8-amino-3-(3-(methoxymethyl)-4,5,6,7-tetrahydro-1H-indazol-5-yl)imidazo[1,5-a]pyrazin-1-yl)-N-(4-(trifluoromethyl)pyridin-2-yl)benzamide]: 10 to 100 nM.

On to `Nc1nccn2c(N3CCCC(C(=O)N4CCOCC4)C3)nc(-c3ccc(C(=O)Nc4ccccn4)cc3)c12` (stereo not shown) [Example 229, 4-(8-amino-3-(3-(morpholine-4-carbonyl)piperidin-1-yl)imidazo[1,5-a]pyrazin-1-yl)-N-(pyridin-2-yl)benzamide, TFA salt], for which the concentration giving a half-maximal response (EC50) was in the range of 10 to 100 nM.

Turning to `Nc1nccn2c1c(-c1ccc(C(=O)Nc3cc(N4CCCC4)ccn3)cc1)nc2[C@H]1CC[C@H](O)CC1` [Example 21, 4-(8-amino-3-((trans)-4-hydroxycyclohexyl)imidazo[1,5-a]pyrazin-1-yl)-N-(4-(pyrrolidin-1-yl)pyridin-2-yl)benzamide], the half-maximal effective concentration (EC50) was in the range of 10 to 100 nM. Compound `Nc1nccn2c([C@@H]3CCCN(C(=O)NC45CC6CC(CC(C6)C4)C5)C3)nc(-c3ccc(C(=O)Nc4cc(C5CC5)ccn4)cc3)c12` [Example 121] returned an EC50 of 10 to 100 nM.

In turn, `CSCCC(=O)N1CCC[C@@H](c2nc(-c3ccc(C(=O)Nc4cc(C(F)(F)F)ccn4)cc3)c3c(N)nccn23)C1` [Example 69, (R)-4-(8-amino-3-(1-(3-(methylthio)propanoyl)piperidin-3-yl)imidazo[1,5-a]pyrazin-1 yl)-N-(4-(trifluoromethyl)pyridin-2-yl)benzamide] yielded an EC50 of less than 10 nM. Turning to `CC(C)C1CC(C(=O)N2CCC[C@@H](c3nc(-c4ccc(C(=O)Nc5cc(C(F)(F)F)ccn5)cc4)c4c(N)nccn34)C2)C1` (stereo partly drawn) [Example 89, (R)-4-(8-amino-3-(1-(3-isopropylcyclobutanecarbonyl)piperidin-3-yl)imidazo[1,5-a]pyrazin-1-yl)-N-(4-(trifluoromethyl)pyridin-2-yl)benzamide], the EC50 was less than 10 nM. `Cc1cc(C(=O)Nc2ccccn2)ccc1-c1nc([C@H]2CC[C@H](O)CC2)n2ccnc(N)c12` [Example 16] had an EC50 of 100 to 1000 nM. As for `CCC(=O)N1CCC[C@@H](c2nc(-c3ccc(C(=O)Nc4ccccn4)cc3)c3c(N)nccn23)C1` [Example 46, (R)-4-(8-amino-3-(1-propionylpiperidin-3-yl)imidazo[1,5-a]pyrazin-1-yl)-N-(pyridin-2-yl)benzamide], the EC50 is less than 10 nM. Take `Nc1nccn2c(N3CCCC(C(=O)NCC4CC4)C3)nc(-c3ccc(C(=O)Nc4ccccn4)cc3)c12` (stereo not shown) [Example 225, 1-(8-amino-1-(4-(pyridin-2-ylcarbamoyl)phenyl)imidazo[1,5-a]pyrazin-3-yl)-N-(cyclopropylmethyl)-piperidine-3-carboxamide, TFA sat]: the EC50 lay within 10 to 100 nM. Compound `Nc1nccn2c([C@@H]3CCC[C@H](N)C3)nc(-c3ccc(C(=O)Nc4cc(C(F)(F)F)ccn4)cc3)c12` (relative stereo) [Example 157, 4-(8-amino-3-((cis)-3-aminocyclohexyl)imidazo[1,5-a]pyrazin-1-yl)-N-(4-(trifluoromethyl)pyridin-2-yl)benzamide] returned a half-maximal effective concentration (EC50) of 10 to 100 nM. On to `Nc1nccn2c([C@@H]3CCCN(C(=O)CC4CC4)C3)nc(-c3ccc(C(=O)Nc4ccccn4)cc3)c12` [Example 92, (R)-4-(8-amino-3-(1-(2-cyclopropylacetyl)piperidin-3 yl)imidazo[1,5-a]pyrazin-1-yl)-N-(pyridin-2-yl)benzamide], for which the EC50 was less than 10 nM.

The test is the same for the next values; noted with them: read-out: EC50 Btk activity values - Assay Method A; IMAP-FP, 60 min pre-incubation, 5 μM ATP; class 100-1000 is given as ≧100 nM-<1 μM.
`CCCc1ccnc(NC(=O)c2ccc(-c3nc(N4CCC4)n4ccnc(N)c34)cc2)c1` [Example 208, 4-(8-amino-3-(azetidin-1-yl)imidazo[1,5-a]pyrazin-1-yl)-N-(4-propylpyridin-2-yl)benzamide]: the EC50 is less than 10 nM. For `CCC(=O)N1CCSC(c2nc(-c3ccc(C(=O)Nc4cc(C(F)(F)F)ccn4)cc3)c3c(N)nccn23)C1` (stereo not shown) [Example 172, 4-(8-amino-3-(4-propionylthiomorpholin-2-yl)imidazo[1,5-a]pyrazin-1-yl)-N-(4-(trifluoromethyl)pyridin-2-yl)benzamide], the concentration for a half-maximal effect (EC50) is less than 10 nM. On the same count and under the same terms, the result for `CSCCC(=O)N1C[C@H](c2nc(-c3ccc(C(=O)Nc4cc(C5CC5)ccn4)cc3)c3c(N)nccn23)CC[C@@H]1C` (relative stereo) [Example 198, 4-(8-amino-3-((cis)-6-methyl-1-(3-(methylthio)propanoyl)-piperidin-3-yl)imidazo[1,5-a]pyrazin-1-yl)-N-(4-cyclopropylpyridin-2-yl)benzamide, TFA salt] reads less than 10 nM.

On to `Nc1nccn2c(N3CCCC(C(=O)N4CCCC4)C3)nc(-c3ccc(C(=O)Nc4cc(C5CC5)ccn4)cc3)c12` (stereo not shown) [Example 247, 4-(8-amino-3-(3-(pyrrolidine-1-carbonyl)piperidin-1-yl)imidazo[1,5-a]pyrazin-1-yl)-N-(4-cyclopropylpyridin-2-yl)benzamide, TFA salt], for which the half-maximal effective concentration (EC50) is less than 10 nM. Turning to `COC[C@H](C)NC(=O)C1CCCN(c2nc(-c3ccc(C(=O)Nc4cc(C5CC5)ccn4)cc3)c3c(N)nccn23)C1` (stereo partly drawn) [Example 241, 1-(8-amino-1-(4-(4-cyclopropylpyridin-2-ylcarbamoyl)phenyl)imidazo[1,5-a]pyrazin-3-yl)-N-((S)-1-methoxypropan-2-yl)piperidine-3-carboxamide, TFA salt], the EC50 was less than 10 nM. As for `Nc1nccn2c(N3CCCC(C(=O)NC[C@@H]4CCCO4)C3)nc(-c3ccc(C(=O)Nc4cc(C(F)(F)F)ccn4)cc3)c12` (stereo partly drawn) [Example 231, 1-(8-amino-1-(4-(4-(trifluoromethyl)pyridin-2-ylcarbamoyl)phenyl)imidazo[1,5-a]pyrazin-3-yl)-N-(((S)-tetrahydrofuran-2-yl)methyl)piperidine-3-carboxamide, TFA salt], the 50% effective concentration (EC50) is less than 10 nM. With `CSCCNC(=O)C1CCCN(c2nc(-c3ccc(C(=O)Nc4cc(C(F)(F)F)ccn4)cc3)c3c(N)nccn23)C1` (stereo not shown) [Example 239, 1-(8-amino-1-(4-(4-(trifluoromethyl)pyridin-2-ylcarbamoyl)phenyl)imidazo[1,5-a]pyrazin-3-yl)-N-(2-(methylthio)ethyl)piperidine-3-carboxamide, TFA salt], the EC50 is less than 10 nM. With `Nc1nccn2c1c(-c1ccc(C(=O)Nc3nc4c(s3)CCCC4)cc1)nc2[C@H]1CC[C@H](O)CC1` [Example 8, 4-(8-amino-3-((trans)-4-hydroxycyclohexyl)imidazo[1,5-a]pyrazin-1-yl)-N-(4,5,6,7-tetrahydrobenzo[d]thiazol-2-yl)benzamide], the concentration giving a half-maximal response (EC50) was less than 10 nM.

On to `CCCc1ccnc(NC(=O)c2ccc(-c3nc(N4CCOCC4)n4ccnc(N)c34)cc2)c1` [Example 212, 4-(8-amino-3-morpholinoimidazo[1,5-a]pyrazin-1-yl)-N-(4-propylpyridin-2-yl)benzamide], for which the 50% effective concentration (EC50) is less than 10 nM.

Regarding `CCNC(=O)N1C[C@H](c2nc(-c3ccc(C(=O)Nc4ccccn4)cc3)c3c(N)nccn23)CC[C@@H]1C` (relative stereo) [Example 193, (cis)-5-(8-amino-1-(4-(pyridin-2-ylcarbamoyl)phenyl)imidazo [1,5-a]pyrazin-3-yl)-N-ethyl-2-methylpiperidine-1-carboxamide, TFA salt], the EC50 was less than 10 nM.
